From the supplement of paper PMC11061612

What was measured:
Assay in all cases: Bliss excess, mean over the matrix (fraction); higher = more synergy
[1] = tested on: EJM (Plasma Cell Myeloma)
Summary of the method: (§1)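 Cell lines grown in DMEM/F12 or RPMI with 10% FBS were plated in 1536-well plates and held 24 hours at 37°C, 5% CO2 before 72 hours of exposure to two-drug dose matrices, with DMSO typically at 0.2%. CellTiter-Glo 2.0 luminescence gave viability, which was converted to inhibition. Vehicle wells were set to 0 and blank wells to 1. Combination Emax is the second-highest inhibition in the matrix, and Bliss excess is the observed combination effect minus the expected EA + EB − EA·EB, where EA and EB are the single-agent effects.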

[2] = tested on: MDA-MB-453 (Breast Carcinoma)
Summary of the method: as §1

[3] = tested on: HAL-01 (B-Lymphoblastic Leukemia)
Summary of the method: as §1

[4] = tested on: EFO-21 (Ovarian Carcinoma)
Summary of the method: as §1

SMILES	Bliss excess [1]	Bliss excess [2]	Bliss excess [3]	Bliss excess [4]
COc1nnc2ccc(N3CCC(c4ccc(OCCN5CCN(C)C(=O)[C@H]5C)cc4)CC3)nn12 [AZD5153] + Cc1c2c(nn1C)CSCc1cc(n(C)n1)CSc1cc(c3ccccc3c1)OCCCc1c(C(=O)O)n(C)c3c-2c(Cl)ccc13 [AZD5991] (first compound max 1 µM, 7x7, partner max 1 µM)	0.0564	0.0437	-0.0787	-0.0428
CC(=O)c1c(C)c2cnc(Nc3ccc(N4CCNCC4)cn3)nc2n(C2CCCC2)c1=O [Palbociclib] + CC1(C)CCC(CN2CCN(c3ccc(C(=O)NS(=O)(=O)c4ccc(NCC5CCOCC5)c([N+](=O)[O-])c4)c(Oc4cnc5[nH]ccc5c4)c3)CC2)=C(c2ccc(Cl)cc2)C1 [Venetoclax] (first compound max 10 µM, 7x7, partner max 1 µM)	-0.0211	0.0091	-0.0461	-0.0638
COc1nnc2ccc(N3CCC(c4ccc(OCCN5CCN(C)C(=O)[C@H]5C)cc4)CC3)nn12 [AZD5153] + Cn1cnc2c(F)c(Nc3ccc(Br)cc3Cl)c(C(=O)NOCCO)cc21 [Selumetinib] (first compound max 1 µM, 7x7, partner max 10 µM)	0.0207	-0.0141	0.0347	-0.0593
Cn1cnc2c(F)c(Nc3ccc(Br)cc3Cl)c(C(=O)NOCCO)cc21 [Selumetinib] + C[C@@H]1COCCN1C2=NC(=NC(=C2)C3(CC3)[S@](=N)(=O)C)C4=C5C=CNC5=NC=C4 [AZD6738] (first compound max 10 µM, 7x7, partner max 10 µM)	-0.0321	-0.05	-0.0541	-0.0192
COc1nnc2ccc(N3CCC(c4ccc(OCCN5CCN(C)C(=O)[C@H]5C)cc4)CC3)nn12 [AZD5153] + C[C@@H]1COCCN1C2=NC(=NC(=C2)C3(CC3)[S@](=N)(=O)C)C4=C5C=CNC5=NC=C4 [AZD6738] (first compound max 1 µM, 7x7, partner max 10 µM)	0.0187	-0.0534	-0.0737	-0.0069
Cc1c2c(nn1C)CSCc1cc(n(C)n1)CSc1cc(c3ccccc3c1)OCCCc1c(C(=O)O)n(C)c3c-2c(Cl)ccc13 [AZD5991] + C=CCn1c(=O)c2cnc(Nc3ccc(N4CCN(C)CC4)cc3)nc2n1-c1cccc(C(C)(C)O)n1 [AZD1775] (first compound max 1 µM, partner max 1 µM)	0.0357	-0.0091	-0.0197	0.0177
CC1(C)CCC(CN2CCN(c3ccc(C(=O)NS(=O)(=O)c4ccc(NCC5CCOCC5)c([N+](=O)[O-])c4)c(Oc4cnc5[nH]ccc5c4)c3)CC2)=C(c2ccc(Cl)cc2)C1 [Venetoclax] + Cn1cnc2c(F)c(Nc3ccc(Br)cc3Cl)c(C(=O)NOCCO)cc21 [Selumetinib] (first compound max 1 µM, 7x7, partner max 3 µM)	-0.006	-0.0284	0.0009	-0.069
COc1cccc(OCCCN)c1-c1cc(Nc2cnc(C#N)cn2)n[nH]1 [Prexasertib] + CN(C)CCCOc1ccc(-c2ccc3ncc4c(c3c2)n(C2CCOCC2)c(=O)n4C)cn1 [AZD0156] (first compound max 1 µM, 7x7, partner max 1 µM)	-0.0303	-0.0509	-0.0002	-0.0684
Cc1c2c(nn1C)CSCc1cc(n(C)n1)CSc1cc(c3ccccc3c1)OCCCc1c(C(=O)O)n(C)c3c-2c(Cl)ccc13 [AZD5991] + C[C@@H]1COCCN1C2=NC(=NC(=C2)C3(CC3)[S@](=N)(=O)C)C4=C5C=CNC5=NC=C4 [AZD6738] (first compound max 1 µM, 7x7, partner max 10 µM)	0.0277	0.0525	-0.0042	0.016
CC1(C)CCC(CN2CCN(c3ccc(C(=O)NS(=O)(=O)c4ccc(NCC5CCOCC5)c([N+](=O)[O-])c4)c(Oc4cnc5[nH]ccc5c4)c3)CC2)=C(c2ccc(Cl)cc2)C1 [Venetoclax] + C1CN(CCC1(C(=O)N[C@@H](CCO)C2=CC=C(C=C2)Cl)N)C3=NC=NC4=C3C=CN4 [Capivasertib] (first compound max 1 µM, 7x7, partner max 3 µM)	0.0067	-0.0022	-0.0206	-0.131
CCc1c2c(nc3ccc(O)cc13)-c1cc3c(c(=O)n1C2)COC(=O)[C@]3(O)CC [SN-38] + O=C(c1cc(Cc2n[nH]c(=O)c3ccccc23)ccc1F)N1CCN(C(=O)C2CC2)CC1 [Olaparib] (first compound max 0.3 µM, 7x7, partner max 10 µM)	0.0404	0.0456	0.0568	0.0601
Cc1c2c(nn1C)CSCc1cc(n(C)n1)CSc1cc(c3ccccc3c1)OCCCc1c(C(=O)O)n(C)c3c-2c(Cl)ccc13 [AZD5991] + C[C@@H](Nc1cc(F)cc(F)c1)c1cc(C(=O)N(C)C)cc2c(=O)cc(N3CCOCC3)oc12 [AZD8186] (first compound max 1 µM, 7x7, partner max 3 µM)	-0.0129	-0.0506	0.015	-0.0522
CN(C)CCCOc1ccc(-c2ccc3ncc4c(c3c2)n(C2CCOCC2)c(=O)n4C)cn1 [AZD0156] + CCN(CCO)CCCOc1ccc2c(Nc3cc(CC(=O)Nc4cccc(F)c4)[nH]n3)ncnc2c1 [AZD2811] (first compound max 1 µM, 7x7, partner max 1 µM)	0.0008	-0.0208	0.0135	-0.0506
C[C@@H]1COCCN1c1cc(C2([S@](C)(=N)=O)CC2)nc(-c2ccnc3[nH]ccc23)n1 [AZD6738] + O=C(c1cc(Cc2n[nH]c(=O)c3ccccc23)ccc1F)N1CCN(C(=O)C2CC2)CC1 [Olaparib] (first compound max 10 µM, 7x7, partner max 10 µM)	-0.0078	-0.0764	0.003	-0.0375
Cn1cnc2c(F)c(Nc3ccc(Br)cc3Cl)c(C(=O)NOCCO)cc21 [Selumetinib] + CCN(CCO)CCCOc1ccc2c(Nc3cc(CC(=O)Nc4cccc(F)c4)[nH]n3)ncnc2c1 [AZD2811] (first compound max 10 µM, 7x7, partner max 1 µM)	0.0145	-0.026	0.0385	-0.0877
C=CCn1c(=O)c2cnc(Nc3ccc(N4CCN(C)CC4)cc3)nc2n1-c1cccc(C(C)(C)O)n1 [AZD1775] + O=C(c1cc(Cc2n[nH]c(=O)c3ccccc23)ccc1F)N1CCN(C(=O)C2CC2)CC1 [Olaparib] (first compound max 1 µM, partner max 10 µM)	-0.0429	-0.0441	-0.0542	-0.0266
CC1(C)CCC(CN2CCN(c3ccc(C(=O)NS(=O)(=O)c4ccc(NCC5CCOCC5)c([N+](=O)[O-])c4)c(Oc4cnc5[nH]ccc5c4)c3)CC2)=C(c2ccc(Cl)cc2)C1 [Venetoclax] + CCN(CCO)CCCOc1ccc2c(Nc3cc(CC(=O)Nc4cccc(F)c4)[nH]n3)ncnc2c1 [AZD2811] (first compound max 1 µM, 7x7, partner max 1 µM)	0.0261	-0.0169	-0.0133	-0.0263
Cc1c2c(nn1C)CSCc1cc(n(C)n1)CSc1cc(c3ccccc3c1)OCCCc1c(C(=O)O)n(C)c3c-2c(Cl)ccc13 [AZD5991] + CCN(CCO)CCCOc1ccc2c(Nc3cc(CC(=O)Nc4cccc(F)c4)[nH]n3)ncnc2c1 [AZD2811] (first compound max 1 µM, 7x7, partner max 1 µM)	0.0504	0.125	0.0012	-0.0065
CN(C)CCCOc1ccc(-c2ccc3ncc4c(c3c2)n(C2CCOCC2)c(=O)n4C)cn1 [AZD0156] + C=CCn1c(=O)c2cnc(Nc3ccc(N4CCN(C)CC4)cc3)nc2n1-c1cccc(C(C)(C)O)n1 [AZD1775] (first compound max 1 µM, partner max 1 µM)	-0.0266	-0.0736	0.053	-0.0369
C=CCn1c(=O)c2cnc(Nc3ccc(N4CCN(C)CC4)cc3)nc2n1-c1cccc(C(C)(C)O)n1 [AZD1775] + C1CN(CCC1(C(=O)N[C@@H](CCO)C2=CC=C(C=C2)Cl)N)C3=NC=NC4=C3C=CN4 [Capivasertib] (first compound max 3 µM, partner max 3 µM)	-0.0041	-0.0524	-0.0528	-0.0991
CN(CCO)CC[C@H](CSc1ccccc1)Nc1ccc(S(=O)(=O)NC(=O)c2ccc(N3CCC([C@@H](O)c4ccccc4-c4ccc(Cl)cc4)CC3)cc2)cc1S(=O)(=O)C(F)(F)F [AZD4320] + CN(C)CCCOc1ccc(-c2ccc3ncc4c(c3c2)n(C2CCOCC2)c(=O)n4C)cn1 [AZD0156] (first compound max 1 µM, 7x7, partner max 1 µM)	0.0079	-0.0449	0.024	-0.0579
Cc1c2c(nn1C)CSCc1cc(n(C)n1)CSc1cc(c3ccccc3c1)OCCCc1c(C(=O)O)n(C)c3c-2c(Cl)ccc13 [AZD5991] + CC1(C)CCC(CN2CCN(c3ccc(C(=O)NS(=O)(=O)c4ccc(NCC5CCOCC5)c([N+](=O)[O-])c4)c(Oc4cnc5[nH]ccc5c4)c3)CC2)=C(c2ccc(Cl)cc2)C1 [Venetoclax] (first compound max 1 µM, 7x7, partner max 1 µM)	0.0164	0.0023	0.0231	-0.0608
CC1(C)CCC(CN2CCN(c3ccc(C(=O)NS(=O)(=O)c4ccc(NCC5CCOCC5)c([N+](=O)[O-])c4)c(Oc4cnc5[nH]ccc5c4)c3)CC2)=C(c2ccc(Cl)cc2)C1 [Venetoclax] + C[C@@H]1COCCN1C2=NC(=NC(=C2)C3(CC3)[S@](=N)(=O)C)C4=C5C=CNC5=NC=C4 [AZD6738] (first compound max 1 µM, 7x7, partner max 10 µM)	-0.0176	-0.0492	0.106	-0.0351
NC1(C(=O)N[C@@H](CCO)c2ccc(Cl)cc2)CCN(c2ncnc3[nH]ccc23)CC1 [Capivasertib] + C[C@@H]1COCCN1C2=NC(=NC(=C2)C3(CC3)[S@](=N)(=O)C)C4=C5C=CNC5=NC=C4 [AZD6738] (first compound max 10 µM, 7x7, partner max 10 µM)	0.0305	-0.0798	-0.0267	-0.0322
CC1(C)CCC(CN2CCN(c3ccc(C(=O)NS(=O)(=O)c4ccc(NCC5CCOCC5)c([N+](=O)[O-])c4)c(Oc4cnc5[nH]ccc5c4)c3)CC2)=C(c2ccc(Cl)cc2)C1 [Venetoclax] + C[C@@H](Nc1cc(F)cc(F)c1)c1cc(C(=O)N(C)C)cc2c(=O)cc(N3CCOCC3)oc12 [AZD8186] (first compound max 1 µM, 7x7, partner max 3 µM)	0.0077	-0.0313	0.0246	-0.0441
COc1cccc(OCCCN)c1-c1cc(Nc2cnc(C#N)cn2)n[nH]1 [Prexasertib] + C=CCn1c(=O)c2cnc(Nc3ccc(N4CCN(C)CC4)cc3)nc2n1-c1cccc(C(C)(C)O)n1 [AZD1775] (first compound max 1 µM, partner max 1 µM)	0.0228	0.0702	0.0697	-0.0075
